Measured values reported in the supplement of paper PMC10307832.

Tests used:
Assay in all cases: relative viability (nuclei count vs DMSO), 5 days (fraction); higher = more cells survive
Dabrafenib + Phenformin = compound: CC(C)(C)c1nc(-c2cccc(NS(=O)(=O)c3c(F)cccc3F)c2F)c(-c2ccnc(N)n2)s1 [Dabrafenib] + N=C(N)NC(=N)NCCc1ccccc1 [Phenformin] (partner 250 µM)
How it was run: (§1)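 Relative viability equals treated-well nuclei counts divided by vehicle-well nuclei counts. Counts came from 4× images of lung cancer cell lines grown in 1536-well plates for 5 days after pin-tool dosing on the day after seeding. Dosing used one drug alone or a fixed anchor-drug dose plus five library-drug doses (not always all listed) in √10 steps, and values are medians of duplicate plates.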

Dabrafenib + Alpelisib = compound: CC(C)(C)c1nc(-c2cccc(NS(=O)(=O)c3c(F)cccc3F)c2F)c(-c2ccnc(N)n2)s1 [Dabrafenib] + Cc1nc(NC(=O)N2CCC[C@H]2C(N)=O)sc1-c1ccnc(C(C)(C)C(F)(F)F)c1 [Alpelisib] (partner 2 µM)
How it was run: as §1

VX-702 + Vorinostat = compound: NC(=O)c1ccc(N(C(N)=O)c2c(F)cccc2F)nc1-c1ccc(F)cc1F [VX-702] + O=C(CCCCCCC(=O)Nc1ccccc1)NO [Vorinostat] (partner 1 µM)
How it was run: as §1

Dabrafenib + Trametinib = compound: CC(C)(C)c1nc(-c2cccc(NS(=O)(=O)c3c(F)cccc3F)c2F)c(-c2ccnc(N)n2)s1 [Dabrafenib] + CC(=O)Nc1cccc(-n2c(=O)n(C3CC3)c(=O)c3c(Nc4ccc(I)cc4F)n(C)c(=O)c(C)c32)c1 [Trametinib] (partner 0.02 µM)
How it was run: as §1

Row | Cell Line | relative viability (Dabrafenib + Phenformin; first compound 0.003 µM) | relative viability (Dabrafenib + Phenformin; first compound 0.009487 µM) | relative viability (Dabrafenib + Phenformin; first compound 0.09487 µM) | relative viability (Dabrafenib + Phenformin; first compound 0.3 µM) | relative viability (Dabrafenib + Alpelisib; first compound 0.003 µM) | relative viability (Dabrafenib + Alpelisib; first compound 0.009487 µM) | relative viability (Dabrafenib + Alpelisib; first compound 0.09487 µM) | relative viability (Dabrafenib + Alpelisib; first compound 0.3 µM) | relative viability (VX-702 + Vorinostat; first compound 0.02 µM) | relative viability (VX-702 + Vorinostat; first compound 0.2 µM) | relative viability (VX-702 + Vorinostat; first compound 0.6325 µM) | relative viability (VX-702 + Vorinostat; first compound 2 µM) | relative viability (Dabrafenib + Trametinib; first compound 0.003 µM) | relative viability (Dabrafenib + Trametinib; first compound 0.009487 µM) | relative viability (Dabrafenib + Trametinib; first compound 0.03 µM) | relative viability (Dabrafenib + Trametinib; first compound 0.09487 µM) | relative viability (Dabrafenib + Trametinib; first compound 0.3 µM) | relative viability (Dabrafenib + Phenformin; first compound 0.03 µM) | relative viability (Dabrafenib + Alpelisib; first compound 0.03 µM)
1 | LK-2 | 0.38 | 0.573 | 0.475 | 0.603 | 1.05 | 1.14 | 1.35 | 1.13 | 0.258 | 0.275 | 0.283 | 0.385 | 0.692 | 0.925 | 0.473 | 0.774 | 0.934 |  | 
2 | NCI-H1666 | 0.483 | 0.554 | 0.583 | 0.68 | 0.988 |  | 0.973 | 1.11 | 1.07 | 0.989 | 0.993 | 0.979 | 0.818 | 0.782 | 0.837 | 0.832 | 0.885 | 0.576 | 0.962
3 | CAL-12T | 0.584 | 0.51 | 0.572 | 0.677 | 1.38 | 1.33 | 1.14 | 1.45 | 0.688 | 0.744 | 0.725 | 1.04 | 0.327 | 0.319 | 0.382 | 0.334 | 0.445 | 0.601 | 1.27
4 | NCI-H2347 |  | 0.461 | 0.382 | 0.352 | 0.561 | 1.01 | 0.965 | 0.991 | 0.561 | 0.594 | 0.454 | 0.591 |  | 0.304 | 0.247 | 0.265 | 0.313 | 0.229 | 0.887
5 | NCI-H1944 | 0.182 | 0.199 | 0.222 | 0.208 | 0.785 | 0.877 | 0.84 | 0.838 | 0.625 | 0.557 | 0.558 | 0.414 | 0.409 | 0.426 | 0.403 | 0.401 | 0.404 | 0.188 | 0.745
6 | A-427 |  | 0.292 | 0.276 | 0.378 |  | 1.18 | 0.932 | 1.1 | 0.897 | 0.869 | 0.895 | 1.01 | 0.759 | 0.737 | 0.745 | 0.65 | 0.785 | 0.273 | 0.885
7 | NCI-H520 | 0.431 | 0.638 | 0.442 | 0.612 | 0.934 | 0.881 | 0.881 | 0.914 | 0.744 | 0.649 | 0.691 | 0.74 | 0.665 | 0.653 | 0.541 | 0.627 | 0.628 | 0.289 | 0.708
8 | NCI-H647 | 0.129 | 0.521 | 0.486 | 0.458 |  | 1.09 | 0.945 | 1.03 | 0.563 | 0.499 | 0.304 | 0.897 | 0.42 | 0.394 | 0.306 | 0.579 | 0.553 | 0.418 | 1.12
9 | NCI-H1793 |  | 0.398 |  | 0.39 | 0.676 | 0.675 | 0.73 | 0.64 | 0.669 |  | 0.757 | 0.591 |  | 0.416 |  | 0.451 | 0.412 |  | 0.615
10 | LU99A | 0.907 | 0.883 | 0.862 | 0.671 | 0.563 | 0.439 | 0.502 | 0.515 | 0.412 | 0.452 | 0.49 | 0.485 | 0.453 | 0.384 | 0.508 | 0.529 | 0.574 | 0.887 | 0.48
11 | BEN |  | 0.257 | 0.272 | 0.242 |  | 1.16 | 0.974 | 1.17 | 0.63 | 0.559 | 0.643 | 0.559 |  | 1.07 |  | 0.842 | 1.11 |  | 
12 | EKVX | 0.147 | 0.227 | 0.196 | 0.236 | 0.923 | 1.05 | 0.682 | 1.07 | 0.823 | 0.671 | 0.676 | 0.696 |  | 0.367 | 0.304 | 0.434 | 0.462 | 0.187 | 0.889
13 | SK-LU-1 |  | 0.571 | 0.47 | 0.373 | 0.915 | 1 | 0.714 | 0.691 | 0.9 | 0.716 | 0.767 | 1.04 |  | 0.437 | 0.329 | 0.488 | 0.456 | 0.326 | 0.869
14 | COR-L 105 | 0.497 | 0.507 | 0.492 | 0.547 | 0.829 | 1.08 | 1.13 | 1.14 | 0.734 | 0.805 | 0.795 | 0.855 | 0.418 | 0.478 | 0.46 | 0.479 | 0.521 | 0.417 | 1.16
15 | NCI-H2170 | 0.4 | 0.367 | 0.384 | 0.421 | 0.91 | 0.848 | 0.733 | 0.95 | 0.967 | 0.734 | 0.842 | 0.874 | 0.908 | 0.982 | 0.842 | 0.839 | 0.919 | 0.385 | 0.713
16 | SW 1573 | 0.371 | 0.445 | 0.465 | 0.541 | 0.765 | 0.931 | 0.663 | 0.669 | 0.937 | 0.793 | 0.707 | 0.8 | 0.608 | 0.547 | 0.669 | 0.648 | 0.705 | 0.324 | 0.74
17 | NCI-H2087 |  | 0.527 | 0.395 | 0.391 | 1.19 | 1.12 | 0.823 | 0.831 | 0.673 | 0.797 | 0.662 | 0.958 |  | 0.18 | 0.234 | 0.209 | 0.181 | 0.597 | 1.11
18 | NCI-H358 | 0.193 | 0.457 | 0.344 | 0.419 |  | 1.01 | 1.01 | 1.15 | 0.675 | 0.601 | 0.669 | 0.972 | 0.109 | 0.116 | 0.159 | 0.162 | 0.178 | 0.467 | 0.735
